Reference: paper PMC8805605, “Discovery of Dimeric Arylsulfonamides as Potent ADAM8 Inhibitors” (ACS Medicinal Chemistry Letters, 2021)

What was measured:
MMP-2 = target: T1, MMP-2 (Homo sapiens, UniProt P08253); assay: MMP-2 fluorometric inhibition assay; assay type: biochemical; details: mean of three independent experiments in duplicate, read-out: In vitro inhibitory activity IC50 on MMP-2
T1 construct: purchased Calbiochem (Merck-Millipore)
T1 sequence (P08253 110-660): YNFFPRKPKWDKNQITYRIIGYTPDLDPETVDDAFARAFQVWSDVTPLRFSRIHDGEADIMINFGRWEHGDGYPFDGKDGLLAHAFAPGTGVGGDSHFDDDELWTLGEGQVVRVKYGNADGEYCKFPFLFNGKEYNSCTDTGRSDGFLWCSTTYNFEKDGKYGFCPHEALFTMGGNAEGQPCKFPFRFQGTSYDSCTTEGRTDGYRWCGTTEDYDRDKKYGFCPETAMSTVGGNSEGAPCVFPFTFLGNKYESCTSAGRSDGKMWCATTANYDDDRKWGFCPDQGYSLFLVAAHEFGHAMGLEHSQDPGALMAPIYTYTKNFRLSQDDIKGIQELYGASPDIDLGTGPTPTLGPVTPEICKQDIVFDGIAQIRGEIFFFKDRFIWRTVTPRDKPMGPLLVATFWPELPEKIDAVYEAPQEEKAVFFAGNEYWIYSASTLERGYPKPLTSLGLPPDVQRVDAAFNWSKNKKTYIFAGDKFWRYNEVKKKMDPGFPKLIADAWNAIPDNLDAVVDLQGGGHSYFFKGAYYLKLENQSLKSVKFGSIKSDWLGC
Method: (§1) The newly synthesized bivalent derivatives 1–3 were then tested in vitro on human recombinant ADAM8 in comparison with JG26 by a fluorometric assay. The inhibitory activity against a panel of MMPs and ADAM10/17 was determined as well to assess their selectivity profile. […]
(§2) VI. Biological Activity on Isolated Enzymes
(§3) MMP and ADAM10 inhibition assays.
(§4) Recombinant human MMP-14 catalytic domain was a kind gift of Prof. Gillian Murphy (Department of […]
(§5) Oncology, University of Cambridge, UK). Pro-MMP-1, pro-MMP-2, and pro-MMP-9, were purchased […]
(§6) from Calbiochem (Merck-Millipore). Pro-MMP-12 and ADAM10 were purchased from R&D Systems.
(§7) Proenzymes were activated immediately prior to use with p-aminophenylmercuric acetate (APMA 2 […]
(§8) mM for 1 h at 37°C for MMP-2 and MMP-1, 1 mM for 1 h at 37°C for MMP-9). Pro-MMP-12 was […]
(§9) auto activated by incubating in the fluorometric assay buffer (FAB: Tris 50 mM, pH = 7.5, NaCl 150 […]
(§10) mM, CaCl2 10 mM, Brij 35 0.05% and DMSO 1%) for 30 h at 37°C. For assay measurements, each […]
(§11) inhibitor stock solution (DMSO, 10 mM) was further diluted in FAB at seven different concentrations.
(§12) Activated enzyme (final concentration 0.56 nM for MMP-2, 1.3 nM for MMP-9, 1.0 nM for MMP- […]
(§13) 14cd, 2.0 nM for MMP-1, 2.3 nM for MMP-12 and 20 nM for ADAM10) and inhibitor solutions were […]
(§14) incubated in the assay buffer for 3 h at 25 °C. ADAM10 was incubated for 1 h at 37°C in a different […]
(§15) buffer at pH 9 (Tris 25 mM, ZnCl2 25 µM, Brij-35 0.005 %). After the addition of 200 µM solution of […]
(§16) the fluorogenic substrate Mca-Lys-Pro-Leu-Gly-Leu-Dap(Dnp)-Ala-Arg-NH2 (Bachem) for all the […]
(§17) enzymes in DMSO (final concentration 2 µM for all enzymes, 10 µM for ADAM10), the hydrolysis […]
(§18) was monitored every 10 sec. for 15 min. recording the increase in fluorescence (λ ex = 325 nm, λ em = […]
(§19) 400 nm) using a Molecular Devices SpectraMax Gemini XPS plate reader. The assays were performed […]
(§20) in triplicate in a total volume of 200 μL per well in 96-well microtitre plates (Corning, black, NBS).
(§21) Control wells lack inhibitor. The MMP inhibition activity was expressed in relative fluorescent units […]
(§22) (RFU). Percent of inhibition was calculated from control reactions without the inhibitor. IC50 was determined using the formula: v i/v o = 1/(1 + [I]/ IC50), where v i is the initial velocity of substrate cleavage in the presence of the inhibitor at concentration [I] and v o is the initial velocity in the absence of the inhibitor. Results were analyzed using SoftMax Pro software (version 5.4.3, Molecular Devices, Sunnyvale, CA) and Prism Software version 5.0 (GraphPad Software, Inc., La Jolla, CA, USA).
ADAM8 and ADAM17 inhibition assays […]

[1] = target: T2, Recombinant human MMP-14 catalytic domain (Homo sapiens, UniProt P50281); assay: MMP-14 fluorometric inhibition assay; assay type: biochemical; details: mean of three independent experiments in duplicate, read-out: In vitro inhibitory activity IC50 on MMP-14
T2 construct: Recombinant human MMP-14 catalytic domain was a kind gift of Prof; Gillian Murphy; kind gift of Prof; Gillian Murphy (Department of Oncology, University of Cambridge, UK)
Method: as §1, §2, §3, §4, §5, §6, §7, §8, §9, §10, §11, §12, §13, §14, §15, §16, §17, §18, §19, §20, §21
as §22, with “USA). […]” for “USA).”

Compound | IC50 (MMP-2) | IC50 [1]
NC(=O)NCCC[C@@H](NS(=O)(=O)c1ccc(OCc2cc(Br)cc(Br)c2)cc1)C(=O)NO [JG26, reference compound] | 0.24 µM | 19.5 µM
O=C(NCCC[C@@H](NS(=O)(=O)c1ccc(OCc2cc(Br)cc(Br)c2)cc1)C(=O)NO)c1cccc(C(=O)NCCC[C@@H](NS(=O)(=O)c2ccc(OCc3cc(Br)cc(Br)c3)cc2)C(=O)NO)c1 [Compound 2] | 3 µM | 50 µM
O=C(NCCC[C@@H](NS(=O)(=O)c1ccc(OCc2cc(Br)cc(Br)c2)cc1)C(=O)NO)NCCC[C@@H](NS(=O)(=O)c1ccc(OCc2cc(Br)cc(Br)c2)cc1)C(=O)NO [Compound 3] | 0.9 µM | 234 µM
O=C(CCCNC(=O)c1cccc(C(=O)NCCCC(=O)NCCC[C@@H](NS(=O)(=O)c2ccc(OCc3cc(Br)cc(Br)c3)cc2)C(=O)NO)c1)NCCC[C@@H](NS(=O)(=O)c1ccc(OCc2cc(Br)cc(Br)c2)cc1)C(=O)NO [Compound 1] | 4.66 µM | 57 µM
